Assay: LogP measurement by HPLC on reversed phase columns (EEC directive 79/831 Annex V.A8)
Type: physicochemical
Conditions: method [a]: LC-UV, acidic range, 0.1% formic acid in water and acetonitrile as eluent (linear gradient 10% to 95% acetonitrile)
Description: Measurement of LogP values was performed according to EEC directive 79/831 Annex V.A8 by HPLC (High Performance Liquid Chromatography) on reversed phase columns with the following methods: • ^[a] LogP value is determined by measurement of LC-UV, in an acidic range, with 0.1% formic acid in water and acetonitrile as eluent (linear gradient from 10% acetonitrile to 95% acetonitrile). • ^[b] LogP value is determined by measurement of LC-UV, in a neutral range, with 0.001 molar ammonium acetate solution in water and acetonitrile as eluent (linear gradient from 10% acetonitrile to 95% acetonitrile). • ^[c] LogP value is determined by measurement of LC-UV, in an acidic range, with 0.1% phosphoric acid and acetonitrile as eluent (linear gradient from 10% acetonitrile to 95% acetonitrile).
If more than one LogP value is available within the same method, all the values are given and separated by "+". […]

| Structure (SMILES) | chromatographic logP (reversed phase HPLC columns) | chromatographic logP |
| --- | --- | --- |
| CCc1cc([S+]([O-])c2ccccc2F)c(C)cc1N=CN(C)CC (stereo not shown) [Example I-076, N-ethyl-N'-[2-ethyl-4-(2-fluorophenyl)sulfinyl-5-methylphenyl]-N-methylmethanimidamide] | 1 |  |
| CCN(C)C=Nc1cc(C#N)c([S+]([O-])c2ccccc2)cc1C (stereo not shown) [Example I-056, N'-[4-(benzenesulfinyl)-5-cyano-2-methylphenyl]-N-ethyl-N-methylmethanimidamide] | 0.87 |  |
| CCN(C)C=Nc1cc(C#N)c([S+]([O-])c2ccccc2Cl)cc1C (stereo not shown) [Example I-061, N'-[4-(2-chlorophenyl)sulfinyl-5-cyano-2-methylphenyl]-N-ethyl-N-methylmethanimidamide] | 1.27 |  |
| CCN(C)C=Nc1cc(C)c([S+]([O-])c2ccccc2F)cc1C (stereo not shown) [Example I-011, N-ethyl-N'-[4-(2-fluorophenyl)sul6nyl-2,5-dimethylphenyl]-N-methylmethanimidamide] |  | 0.78 |
| CCN(C)C=Nc1cc(Br)c([S+]([O-])c2ccccc2F)cc1C (stereo not shown) [Example I-043, N'-[5-bromo-4-(2-fluorophenyl)sulfinyl-2-methylphenyl]-N-ethyl-N-methylmethanimidamide] | 1.1 |  |
| CCc1cc([S+]([O-])c2ccccc2C)c(C)cc1N=CN(C)CC (stereo not shown) [Example I-081, N-ethyl-N'-[2-ethyl-5-methyl-4-(2-methylphenyl)sulfinylphenyl]-N-methylmethanimidamide] | 1.07 |  |
| CCN(C)C=Nc1cc(C)c(S(=O)(=O)c2ccccc2C)cc1C(F)(F)F [Example I-092, N-ethyl-N-methyl-N'-[5-methyl-4-(2-methylphenyl)sulfonyl-2-(trifluoromethyl)phenyl]methanimidamide] | 3.76 |  |
| CCN(C)C=Nc1cc(C)c([S+]([O-])c2ccccc2F)cc1C1CC1 (stereo not shown) [Example I-089, N'-[2-cyclopropyl-4-(2-fluorophenyl)sulfinyl-5-methylphenyl]-N-ethyl-N-methylmethanimidamide] | 1.04 |  |
| CCN(C)C=Nc1cc(Cl)c([S+]([O-])c2ccccc2C)cc1C (stereo not shown) [Example I-037, N'-[5-chloro-2-methyl-4-(2-methylphenyl)sulfinylphenyl]-N-ethyl-N-methylmethanimidamide] | 1.1 |  |
| CCN(C)C=Nc1cc(C)c(Sc2ccccc2)cc1Br [Example I-080, N'-(2-bromo-5-methyl-4-phenylsulfanylphenyl)-N-ethyl-N-methylmethanimidamide] | 1.75 |  |
| CCN(C)C=Nc1cc(C)c(S(=O)(=O)c2ccccc2C)cc1Cl [Example I-015, N'-[2-chloro-5-methyl-4-(2-methylphenyl)sulfonylphenyl]-N-ethyl-N-methylmethanimidamide] | 1.69 |  |
| CCN(C)C=Nc1cc(C)c([S+]([O-])c2ccccc2Cl)cc1C (stereo not shown) [Example I-010, N'-[4-(2-chlorophenyl)sulfinyl-2,5-dimethylphenyl]-N-ethyl-N-methylmethanimidamide] | 0.97 |  |
| CCN(C)C=Nc1cc(Br)c([S+]([O-])c2ccccc2C#N)cc1C (stereo not shown) [Example I-064, N'-[5-bromo-4-(2-cyanophenyl)sulfinyl-2-methylphenyl]-N-ethyl-N-methylmethanimidamide] | 0.93 |  |
| CCN(C)C=Nc1cc(C)c(S(=O)(=O)c2ccccc2F)cc1C(C)C [Example I-093, N-ethyl-N'-[4-(2-fluorophenyl)sulfonyl-2-isopropyl-5-methylphenyl]-N-methylmethanimidamide] | 1.45 |  |
| CCN(C)C=Nc1cc(F)c([S+]([O-])c2ccccc2Cl)cc1C (stereo not shown) [Example I-033, N'-[4-(2-chlorophenyl)sulfinyl-5-fluoro-2-methylphenyl]-N-ethyl-N-methylmethanimidamide] | 1.12 |  |
| CCN(C)C=Nc1cc(C)c(S(=O)(=O)c2ccccc2F)cc1Cl [Example I-019, N'-[2-chloro-4-(2-fluorophenyl)sulfonyl-5-methylphenyl]-N-ethyl-N-methylmethanimidamide] | 1.84 |  |
| CCN(C)C=Nc1cc(Cl)c([S+]([O-])c2ccccc2)cc1C (stereo not shown) [Example I-050, N'-[4-(benzenesulfinyl)-5-chloro-2-methylphenyl]-N-ethyl-N-methylmethanimidamide] | 0.97 |  |
| CCN(C)C=Nc1cc(C)c([S+]([O-])c2ccccc2C)cc1Cl (stereo not shown) [Example I-012, N'-[2-chloro-5-methyl-4-(2-methylphenyl)sulfinylphenyl]-N-ethyl-N-methylmethanimidamide] | 0.97 |  |
| CCN(C)C=Nc1cc(F)c(S(=O)(=O)c2ccccc2C)cc1C [Example I-028, N-ethyl-N'-[5-fluoro-2-methyl-4-(2-methylphenyl)sulfonylphenyl]-N-methylmethanimidamide] | 1.42 |  |

| Structure (SMILES) | chromatographic logP (reversed phase HPLC columns) | chromatographic logP |
| --- | --- | --- |
| CCN(C)C=Nc1cc(C#N)c(S(=O)(=O)c2ccccc2Cl)cc1C [Example I-062, N'-[4-(2-chlorophenyl)sulfonyl-5-cyano-2-methylphenyl]-N-ethyl-N-methylmethanimidamide] | 1.84 |  |
| CCN(C)C=Nc1cc(F)c([S+]([O-])c2ccccc2)cc1C (stereo not shown) [Example I-031, N'-[4-(benzenesulfinyl)-5-fluoro-2-methylphenyl]-N-ethyl-N-methylmethanimidamide] | 0.78 |  |
| CCN(C)C=Nc1cc(C)c([S+]([O-])c2ccccc2C)cc1C(C)C (stereo not shown) [Example I-073, N-ethyl-N'-[2-isopropyl-5-methyl-4-(2-methylphenyl)sulfinylphenyl]-N-methylmethanimidamide] | 1.18 |  |
| CCN(C)C=Nc1cc(C)c(S(=O)(=O)c2ccccc2F)cc1Br [Example I-071, N'-[2-bromo-4-(2-fluorophenyl)sulfonyl-5-methylphenyl]-N-ethyl-N-methylmethanimidamide] | 1.81 |  |
| CCN(C)C=Nc1cc(F)c(S(=O)(=O)c2ccccc2Cl)cc1C [Example I-029, N'-[4-(2-chlorophenyl)sulfonyl-5-fluoro-2-methylphenyl]-N-ethyl-N-methylmethanimidamide] | 1.45 |  |
| CCN(C)C=Nc1cc(C)c([S+]([O-])c2ccccc2F)cc1C(C)C (stereo not shown) [Example I-086, N-ethyl-N'-[4-(2-fluorophenyl)sulfinyl-2-isopropyl-5-methylphenyl]-N-methylmethanimidamide] | 1.15 |  |
| CCN(C)C=Nc1cc(Br)c([S+]([O-])c2ccccc2Cl)cc1C (stereo not shown) [Example I-036, N'-[5-bromo-4-(2-chlorophenyl)sulfinyl-2-methylphenyl]-N-ethyl-N-methylmethanimidamide] | 1.26 |  |
| CCN(C)C=Nc1cc(C#N)c(S(=O)(=O)c2ccccc2C)cc1C [Example I-059, N'-[5-cyano-2-methyl-4-(2-methylphenyl)sulfonylphenyl]-N-ethyl-N-methylmethanimidamide] | 1.8 |  |
| CCN(C)C=Nc1cc(F)c(S(=O)(=O)c2ccccc2)cc1C [Example I-027, N'-[4-(benzenesulfonyl)-5-fluoro-2-methylphenyl]-N-ethyl-N-methylmethanimidamide] | 1.18 |  |
| CCN(C)C=Nc1cc(C)c(S(=O)(=O)c2ccccc2C)cc1C(C)C [Example I-094, N-ethyl-N'-[2-isopropyl-5-methyl-4-(2-methylphenyl)sulfonylphenyl]-N-methylmethanimidamide] | 1.58 |  |
| CCN(C)C=Nc1cc(C)c([S+]([O-])c2ccccc2)cc1Br (stereo not shown) [Example I-079, N'-[4-(benzenesulfinyl)-2-bromo-5-methylphenyl]-N-ethyl-N-methylmethanimidamide] | 0.93 |  |
| CCN(C)C=Nc1cc(Cl)c([S+]([O-])c2ccccc2F)cc1C (stereo not shown) [Example I-030, N'-[5-chloro-4-(2-fluorophenyl)sulfinyl-2-methylphenyl]-N-ethyl-N-methylmethanimidamide] | 1.03 |  |
| CCN(C)C=Nc1cc(Br)c([S+]([O-])c2ccccc2C)cc1C (stereo not shown) [Example I-035, N'-[5-bromo-2-methyl-4-(2-methylphenyl)sulfinylphenyl]-N-ethyl-N-methylmethanimidamide] | 1.12 |  |
| CCN(C)C=Nc1cc(C)c(S(=O)(=O)c2ccccc2Cl)cc1Cl [Example I-018, N'-[2-chloro-4-(2-chlorophenyl)sulfonyl-5-methylphenyl]-N-ethyl-N-methylmethanimidamide] | 2.02 |  |
| CCN(C)C=Nc1cc(C)c(S(=O)(=O)c2ccccc2C)cc1C1CC1 [Example I-072, N'-[2-cyclopropyl-5-methyl-4-(2-methylphenyl)sulfonylphenyl]-N-ethyl-N-methylmethanimidamide] | 1.39 |  |
| CCN(C)C=Nc1cc(C#N)c(S(=O)(=O)c2ccccc2)cc1C [Example I-055, N'-[4-(benzenesulfonyl)-5-cyano-2-methylphenyl]-N-ethyl-N-methylmethanimidamide] | 1.53 |  |
| CCN(C)C=Nc1cc(C)c([S+]([O-])c2ccccc2)cc1C1CC1 (stereo not shown) [Example I-075, N'-[4-(benzenesulfinyl)-2-cyclopropyl-5-methylphenyl]-N-ethyl-N-methylmethanimidamide] | 0.9 |  |
| CCc1cc(S(=O)(=O)c2ccccc2F)c(C)cc1N=CN(C)CC [Example I-084, N-ethyl-N'-[2-ethyl-4-(2-fluorophenyl)sulfonyl-5-methylphenyl]-N-methylmethanimidamide] | 1.24 |  |
